# Measured values from patent publication USRE37355E, “6-dimethylaminomethyl-1-phenyl-cyclohexane compounds as pharmaceutical active ingredients” (priority 1995, dated 2001).
# Read-outs that look alike come from different tables or passages of the source.
# Tested on: mice
# Test: Testing for analgesia using the tail flick test on mice
# Format: in vivo, NMRI mice
# Details: Mus musculus, 20 min, read-out: ED50 (tail flick test, analgesia)
# Description: Testing for analgesia using the tail flick test on mice
# The analgesic effectiveness of the compounds according to the invention was investigated in the thermal radiation (tail flick) test on mice using the method of D'Amour and Smith (J. Pharm. Exp. Ther. 72, 74-79 (1941). […]. The animals were placed in a special test cage and the bases of their tails were exposed to the focused thermal radiation from an electric lamp (Rhema Analgesiemeter Type 3010). The lamp intensity was adjusted so that the time from switching on the lamp until the sudden twitching away of the tail (latency of pain) was 3-5 seconds for untreated animals. Before the administration of a compound according to the invention, the animals were pre-tested twice within five minutes and the average value of these measurements was calculated as the pre-test average. The pain measurement was made 20, 40 and 60 minutes after intravenous administration. […]. In order to determine the dosage-dependency, the respective compound according to the invention was applied in doses increasing logarithmically by a factor of 3-5, which included the threshold and the maximum effective dose each time. The ED50 values were determined from the number of analgesic animals by the method of Litchfield and Wilcoxon (J. Pharm. Exp. Ther. 96, 99-113, (1949)). Calculation of the ED50 was made at the effective maximum 20 minutes after intraveneous adminstration of the substance.
# [1] = NMRI mice, intravenous, 20 minutes after administration, Litchfield and Wilcoxon
Structure (SMILES),ED50 (iv),ED50 [1]
"COc1cccc([C@@]2(O)CCCC[C@@H]2CN(C)C)c1.Cl (racemic) [Tramadol, (1RS,2RS)-2[(dimethylamino)methyl]-1-(3-methoxyphenyl)cyclohexanol hydrochloride, reference compound]",13.6 mg/kg,–
"CN(C)C[C@@H]1CCCC[C@@H]1c1cccc(O)c1.Cl [(+7), (+)-(1S,2R)-3-(2-dimethylaminomethyl-cyclohexyl)-phenol hydrochloride]",–,1.13 mg/kg
"CN(C)C[C@H]1CCCC[C@H]1c1cccc(OC(=O)C(C)(C)C)c1.Cl [(-8), (-)-(1R,2S)-2,2-dimethylpropionic acid-3-(2-dimethylaminomethyl-cyclohexyl)-phenyl ester hydrochloride]",–,4.61 mg/kg
"CN(C)C[C@H]1CCCC[C@]1(F)c1cccc(O)c1.Cl [(+1), (+)-(1R,2R)-3-(2-dimethylaminomethyl-1-fluoro-cyclohexyl)-phenol hydrochloride]",–,0.64 mg/kg
"COc1cccc([C@@]2(O)C[C@H](O)CC[C@@H]2CN(C)C)c1.Cl (racemic) [(17), (1RS,3RS,6RS)-6-dimethylaminomethyl-1-(3-methoxy-phenyl)-cyclohexane-1,3-diol hydrochloride]",–,5.54 mg/kg
"COc1cccc([C@@H]2CCCC[C@@H]2CN(C)C)c1.Cl [(+6), (+)-(1S,2R)-[2-(3-methoxy-phenyl)-cyclohexylmethyl]-dimethylamine hydrochloride]",–,10.7 mg/kg
"CN(C)C[C@H]1CCCC[C@H]1c1cccc(O)c1.Cl [(-7), (-)-(1R,2S)-3-(2-dimethylaminomethyl-cyclohexyl)-phenol hydrochloride]",–,5.9 mg/kg
"CC(C)COC(=O)Oc1cccc([C@@H]2CCCC[C@@H]2CN(C)C)c1.Cl [(-11), (-)-(1R,2S)-carbonic acid-[3-(2-dimethylaminomethyl-cyclohexyl)-phenyl]-ester-isobutyl ester hydrochloride]",–,5.01 mg/kg
"CN(C)C[C@@H]1CCCC[C@@]1(F)c1cccc(O)c1.Cl [(-1), (-)-(1S,2S)-3-(2-dimethylaminomethyl-1-fluoro-cyclohexyl)-phenol hydrochloride]",–,2.28 mg/kg
"COc1cccc([C@@]2(O)C[C@H](O)CC[C@@H]2CN(C)C)c1.Cl [(+17), (+)-(1R,3R,6R)-6dimethylaminomethyl-1-(3-methoxy-phenyl)-cyclohexane-1,3-diol hydrochloride]",–,3.93 mg/kg
"CC(=O)Oc1ccccc1C(=O)Oc1cccc([C@@H]2CCCC[C@@H]2CN(C)C)c1.Cl [(-10), (-)-(1R,2S)-2-acetoxy-benzoic acid-3-(2-dimethylaminomethyl-cyclohexyl)-phenyl ester hydrochloride]",–,8.71 mg/kg
"CN(C)C[C@H]1CCCC[C@]1(Cl)c1cccc(O)c1.Cl [(+5), (+)-(1R,2R)-3-(1-chloro-2-dimethylaminomethyl-cyclohexyl)-phenol hydrochloride]",–,2.78 mg/kg
"CN(C)C[C@H]1CC[C@@H](O)C[C@]1(O)c1cccc(O)c1.Cl [(+21), (+)-(1R,3R,6R)-6-dimethylaminomethyl-1-(3-hydroxy-phenyl)-cyclohexane-1,3-diol hydrochloride]",–,7.34 mg/kg
